In PubChem BioAssay AID1918999 (Molecular Pharmacology Branch, DTP, NCI, 2023):

Tested on: 556581-035-R-J1-PDC complex spheroid growth
Assay: Anticancer human tumor 556581-035-R-J1-PDC patient-derived ovarian carcinoma cell line growth inhibition [AhR]
Conditions: for IC50: curve of first compound; for viability, T/C: stronger effect = lower value
Summary of the method: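 Spheroids combined tumor cells with HUVEC endothelial cells and human MSCs as stroma. AhR antagonists were paired with standard or investigational drugs, each dosed in half-log steps down from near clinical Cmax, or from 10 microM where Cmax was unknown.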

[1] = second compound 0.1 µM, first compound 0.0316 µM
[2] = second compound 0.1 µM, first compound 0.1 µM
[3] = second compound 0.1 µM, first compound 0.316 µM
[4] = second compound 0.1 µM, first compound 1 µM
[5] = second compound 0.1 µM, first compound 3.16 µM
[6] = second compound 0.1 µM, first compound 10 µM
[7] = second compound 0.316 µM, first compound 0.0316 µM
[8] = second compound 0.316 µM, first compound 0.1 µM
[9] = second compound 0.316 µM, first compound 0.316 µM
[10] = second compound 0.316 µM, first compound 1 µM
[11] = second compound 0.316 µM, first compound 3.16 µM
[12] = second compound 0.316 µM, first compound 10 µM
[13] = second compound 1 µM, first compound 0.0316 µM
[14] = second compound 1 µM, first compound 0.1 µM
[15] = second compound 1 µM, first compound 0.316 µM
[16] = second compound 1 µM, first compound 1 µM
[17] = second compound 1 µM, first compound 3.16 µM
[18] = second compound 1 µM, first compound 10 µM
[19] = second compound 3.16 µM, first compound 0.0316 µM
[20] = second compound 3.16 µM, first compound 0.1 µM
[21] = second compound 3.16 µM, first compound 0.316 µM
[22] = second compound 3.16 µM, first compound 1 µM
[23] = second compound 3.16 µM, first compound 3.16 µM
[24] = second compound 3.16 µM, first compound 10 µM
[25] = second compound 10 µM, first compound 0.0316 µM
[26] = second compound 10 µM, first compound 0.1 µM
[27] = second compound 10 µM, first compound 0.316 µM
[28] = second compound 10 µM, first compound 1 µM
[29] = second compound 10 µM, first compound 3.16 µM
[30] = second compound 10 µM, first compound 10 µM
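Wherever viability, T/C is given: compound exposure lasted 7 days; 100% = DMSO vehicle control growth.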

With COc1cc(C2c3cc4c(cc3C(OC3OC5COC(C)OC5C(O)C3O)C3COC(=O)C23)OCO4)cc(OC)c1O (stereo not given) + Cc1cncc(-c2nc(NCCc3c[nH]c4ccccc34)c3ncn(C(C)C)c3n2)c1 the IC50 (second compound 0.1 µM) was 8380 nM, the IC50 (second compound 0.316 µM) was 5930 nM and the IC50 (second compound 1 µM) was 5940 nM. For the same molecule, the IC50 (second compound 3.16 µM) was 7000 nM, the IC50 (second compound 10 µM) was > 10000 nM and the viability, T/C [1] was 97.9%. The viability, T/C [2] was 97.9%, the viability, T/C [3] was 87.4% and the viability, T/C [4] was 72.4%. It also gave a viability, T/C [5] of 62.2%, a viability, T/C [6] of 47.4% and a viability, T/C [7] of 94%. The viability, T/C [8] was 107%, the viability, T/C [9] was 88.8% and the viability, T/C [10] was 75.9%. For the same molecule, the viability, T/C [11] was 65.3%, the viability, T/C [12] was 39% and the viability, T/C [13] was 95.6%. For the same molecule, the viability, T/C [14] was 103%, the viability, T/C [15] was 92.8% and the viability, T/C [16] was 78.8%. It also gave a viability, T/C [17] of 59%, a viability, T/C [18] of 42.9% and a viability, T/C [19] of 96.7%. The viability, T/C [20] was 92.5%, the viability, T/C [21] was 89.2% and the viability, T/C [22] was 72.4%. It also gave a viability, T/C [23] of 64.7%, a viability, T/C [24] of 43.7% and a viability, T/C [25] of 83.7%. The viability, T/C [26] was 76.8%, the viability, T/C [27] was 78.2% and the viability, T/C [28] was 73.8%. For the same molecule, the viability, T/C [29] was 62.9% and the viability, T/C [30] was 50.6%.
COc1cccc2c1C(=O)c1c(O)c3c(c(O)c1C2=O)CC(O)(C(=O)CO)CC3OC1CC(N)C(O)C(C)O1 (stereo not given) + Cc1cncc(-c2nc(NCCc3c[nH]c4ccccc34)c3ncn(C(C)C)c3n2)c1 gave an IC50 (second compound 0.1 µM) of 382 nM, an IC50 (second compound 0.316 µM) of 380 nM and an IC50 (second compound 1 µM) of 403 nM. For the same molecule, the IC50 (second compound 3.16 µM) was 349 nM, the IC50 (second compound 10 µM) was 351 nM and the viability, T/C [1] was 87%. The viability, T/C [2] was 89.8%, the viability, T/C [3] was 58.3% and the viability, T/C [4] was 6.64%. The viability, T/C [5] was 0.94%, the viability, T/C [6] was 1.6% and the viability, T/C [7] was 84.8%. It also gave a viability, T/C [8] of 82.5%, a viability, T/C [9] of 58.3% and a viability, T/C [10] of 6.48%. For the same molecule, the viability, T/C [11] was 0.61%, the viability, T/C [12] was 2.51% and the viability, T/C [13] was 81.9%. The viability, T/C [14] was 73.8%, the viability, T/C [15] was 62.9% and the viability, T/C [16] was 3.27%. The viability, T/C [17] was 0.86%, the viability, T/C [18] was 2.01% and the viability, T/C [19] was 77.7%. The viability, T/C [20] was 74.8%, the viability, T/C [21] was 54.4% and the viability, T/C [22] was 2.38%. The viability, T/C [23] was 1.27%, the viability, T/C [24] was 3.59% and the viability, T/C [25] was 80.8%. The viability, T/C [26] was 68.8%, the viability, T/C [27] was 54.8% and the viability, T/C [28] was 2.24%. It also gave a viability, T/C [29] of 1.87% and a viability, T/C [30] of 3.7%.
Nc1ncn(C2CC(O)C(CO)O2)c(=O)n1 (stereo not given) + Cc1cncc(-c2nc(NCCc3c[nH]c4ccccc34)c3ncn(C(C)C)c3n2)c1 was tested, and the IC50 (second compound 0.1 µM) was > 1000 nM, the IC50 (second compound 0.316 µM) was > 1000 nM and the IC50 (second compound 1 µM) was > 1000 nM. The IC50 (second compound 3.16 µM) was > 1000 nM, the IC50 (second compound 10 µM) was > 1000 nM and the viability, T/C (second compound 0.1 µM, first compound 0.00316 µM) was 97.2%. For the same molecule, the viability, T/C (second compound 0.1 µM, first compound 0.01 µM) was 95.1%, the viability, T/C [1] was 106% and the viability, T/C [2] was 89%. For the same molecule, the viability, T/C [3] was 84.8%, the viability, T/C [4] was 77.4% and the viability, T/C (second compound 0.316 µM, first compound 0.00316 µM) was 102%. The viability, T/C (second compound 0.316 µM, first compound 0.01 µM) was 93.6%, the viability, T/C [7] was 90.7% and the viability, T/C [8] was 87%. It also gave a viability, T/C [9] of 93.1%, a viability, T/C [10] of 85.6% and a viability, T/C (second compound 1 µM, first compound 0.00316 µM) of 91.4%. The viability, T/C (second compound 1 µM, first compound 0.01 µM) was 105%, the viability, T/C [13] was 104% and the viability, T/C [14] was 110%. The viability, T/C [15] was 92.6%, the viability, T/C [16] was 82.2% and the viability, T/C (second compound 3.16 µM, first compound 0.00316 µM) was 98.2%. For the same molecule, the viability, T/C (second compound 3.16 µM, first compound 0.01 µM) was 95.5%, the viability, T/C [19] was 93.6% and the viability, T/C [20] was 94.7%. The viability, T/C [21] was 88.3%, the viability, T/C [22] was 90.2% and the viability, T/C (second compound 10 µM, first compound 0.00316 µM) was 83.7%. It also gave a viability, T/C (second compound 10 µM, first compound 0.01 µM) of 78.5%, a viability, T/C [25] of 81.6% and a viability, T/C [26] of 82%. It also gave a viability, T/C [27] of 81.8% and a viability, T/C [28] of 83.6%.
